Some test systems named below: SW-620 colon; OVCAR-5 ovarian; SR leukemia; SNB-19 CNS; SK-MEL-5 melanoma; HCT-15 colon; UACC-62 melanoma; K-562 leukemia; UO-31 renal; 786-0 renal.
Holding throughout (experiment): inhibition of tumour cell growth, NCI panel, 48 h

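Cultured in 96-well plates, cells were exposed to test compound for 48 hours across five concentrations. The concentration for 50% growth inhibition is given as GI50. TGI is the concentration that stops growth completely.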 A value given as a limit tells only on which side of the number the result lay.

For the compound `Cc1ccc2c(c1)-c1oc(=O)c(-c3cc4ccccc4oc3=O)cc1C(O)O2` (stereo not given), the GI50 with SW-620 colon was 18.9 µM; with OVCAR-5 ovarian, 20.8 µM; in the test with SR leukemia, 22.9 µM; in the test with SNB-19 CNS, 22.6 µM; in the test on SK-MEL-5 melanoma, 19.1 µM; in the test on HCT-15 colon, 23.9 µM. The GI50 in the test on UACC-62 melanoma is 17.4 µM; with K-562 leukemia it was 26.2 µM; in the test with UO-31 renal, 16.7 µM; with 786-0 renal, 20.9 µM. The TGI with SW-620 colon was 33.5 µM; in the test with OVCAR-5 ovarian, 49.8 µM; with SR leukemia, 82.8 µM; in the test with SNB-19 CNS, 71 µM; with SK-MEL-5 melanoma, 33.2 µM; in the test on HCT-15 colon, 48.8 µM. Further, the TGI in the test on UACC-62 melanoma stood at 35.6 µM; in the test with K-562 leukemia it was 76.6 µM; in the test with UO-31 renal, 37.3 µM; with 786-0 renal it was 39.7 µM.
With `CCCCCCC/C=C1\CCC(CN(C)C)C1=O` (stereo not given), the TGI in the test on SW-620 colon was found to be 18 µM; in the test on OVCAR-5 ovarian it was 36.7 µM; with SR leukemia it was 9.17 µM; with SNB-19 CNS it was 33.8 µM; in the test on SK-MEL-5 melanoma, 34 µM; with HCT-15 colon, 21.7 µM. The TGI is 28.7 µM with UACC-62 melanoma, 9.53 µM in the test on K-562 leukemia, 29.1 µM with UO-31 renal and 3.84 µM in the test on 786-0 renal.
For `CCCC(=O)Nc1c(I)cc(I)c(CC(CC)C(=O)O)c1I` (stereo not given), the GI50 in the test on SW-620 colon, with OVCAR-5 ovarian, in the test with SR leukemia, in the test with SNB-19 CNS, in the test with SK-MEL-5 melanoma and with HCT-15 colon was greater than 100 µM in each case. Further, the GI50 in the test on UACC-62 melanoma, in the test with K-562 leukemia, in the test on UO-31 renal and in the test with 786-0 renal was greater than 100 µM in each case. The TGI in the test on SW-620 colon, in the test with OVCAR-5 ovarian, in the test on SR leukemia, with SNB-19 CNS, in the test with SK-MEL-5 melanoma and in the test with HCT-15 colon was greater than 100 µM throughout. In addition, the TGI in the test on UACC-62 melanoma, in the test on K-562 leukemia, in the test on UO-31 renal and in the test with 786-0 renal was greater than 100 µM each time.
In the case of `CN1CCN(c2ccc(-c3cccc(CN4CCOCC4)c3)cc2NC(=O)c2c[nH]c(=O)cc2C(F)(F)F)CC1`, the GI50 is 33.6 µM in the test with SW-620 colon; greater than 100 µM in the test on OVCAR-5 ovarian; 26.4 µM in the test on SR leukemia; 94.7 µM with SNB-19 CNS; 14.2 µM with SK-MEL-5 melanoma; 50.3 µM in the test on HCT-15 colon. Moreover, the GI50 with UACC-62 melanoma is 60.1 µM; with K-562 leukemia, 22.1 µM; in the test with UO-31 renal it was 49 µM; in the test on 786-0 renal, 41.8 µM. Also, the TGI is greater than 100 µM in the test with SW-620 colon; greater than 100 µM in the test with OVCAR-5 ovarian; 63.7 µM in the test on SR leukemia; greater than 100 µM with SNB-19 CNS; 28.3 µM in the test on SK-MEL-5 melanoma; greater than 100 µM in the test with HCT-15 colon. For the same compound, the TGI is greater than 100 µM with UACC-62 melanoma, 51 µM in the test with K-562 leukemia, greater than 100 µM with UO-31 renal and greater than 100 µM in the test with 786-0 renal.
Consider `COc1ccc(C(=O)c2cc(C)c(OC)c(C)c2)c(OC)c1N(C(=O)CCl)C(=O)CCl`, for which the GI50 was 0.0432 µM with SW-620 colon; 0.101 µM in the test on OVCAR-5 ovarian; 0.045 µM in the test on SR leukemia; 0.05 µM in the test on SNB-19 CNS; 0.0554 µM in the test with SK-MEL-5 melanoma; 0.0537 µM in the test with HCT-15 colon. Moreover, the GI50 in the test with UACC-62 melanoma was 0.067 µM; in the test with K-562 leukemia, 0.0557 µM; in the test with UO-31 renal, 0.0829 µM; in the test on 786-0 renal, 0.0474 µM. Besides, the TGI was 19.3 µM in the test on SW-620 colon; greater than 53.6 µM in the test with OVCAR-5 ovarian; greater than 100 µM with SR leukemia; greater than 71.1 µM in the test with SNB-19 CNS; 1.96 µM in the test on SK-MEL-5 melanoma; 14.2 µM in the test with HCT-15 colon. Also, the TGI was 23.5 µM with UACC-62 melanoma, greater than 100 µM with K-562 leukemia, 24.9 µM in the test on UO-31 renal and 15.4 µM with 786-0 renal.
For `COc1ccccc1N1CCN(CCCOc2ccc(C(=O)/C=C3/C(=O)Nc4ccccc43)cc2)CC1`, the GI50 with SW-620 colon was 12.6 µM; in the test with OVCAR-5 ovarian, 16.6 µM; in the test with SR leukemia, 2.57 µM; with SNB-19 CNS it was 40.6 µM; with SK-MEL-5 melanoma, 6.9 µM; in the test with HCT-15 colon it was 7.88 µM. Also, the GI50 was 11.9 µM in the test on UACC-62 melanoma, 3.51 µM with K-562 leukemia, 16.3 µM in the test with UO-31 renal and 19.7 µM with 786-0 renal. In addition, the TGI is 25.5 µM in the test with SW-620 colon; 59.9 µM in the test on OVCAR-5 ovarian; 14.4 µM in the test with SR leukemia; greater than 100 µM with SNB-19 CNS; 18.4 µM in the test on SK-MEL-5 melanoma; greater than 68.1 µM in the test with HCT-15 colon. The TGI with UACC-62 melanoma is 28.4 µM; in the test with K-562 leukemia it was greater than 34.8 µM; in the test on UO-31 renal it was greater than 100 µM; in the test with 786-0 renal, greater than 70 µM.
Turning to `COc1cc(=O)oc(/C=C/C=C/C=C/C(C)=C\C2(C)OC(C)C(C)(O)C2O)c1C` (stereo not given), the TGI in the test with SW-620 colon, in the test with OVCAR-5 ovarian, in the test with SR leukemia, in the test with SNB-19 CNS, in the test on SK-MEL-5 melanoma and in the test with HCT-15 colon was greater than 100 µM each time. Besides, the TGI with UACC-62 melanoma, in the test on K-562 leukemia, in the test on UO-31 renal and in the test with 786-0 renal was greater than 100 µM throughout.
For `COC(=O)CCCNC(=O)C(=O)c1c(O)c(O)c(C(C)C)c2cc(C)c(-c3c(C)cc4c(C(C)C)c(O)c(O)c(C(=O)C(=O)NCCCC(=O)OC)c4c3O)c(O)c12`, the GI50 in the test with SW-620 colon is 0.74 µM; in the test on OVCAR-5 ovarian it was 0.781 µM; in the test on SR leukemia it was 0.706 µM; with SNB-19 CNS, 0.167 µM; with SK-MEL-5 melanoma, 1.24 µM; in the test with HCT-15 colon, 0.587 µM. Besides, the GI50 in the test with UACC-62 melanoma was 0.657 µM; with K-562 leukemia, 0.246 µM; in the test on UO-31 renal, 0.558 µM; in the test with 786-0 renal, 1.07 µM. The TGI in the test on SW-620 colon was 5.52 µM; in the test with OVCAR-5 ovarian it was greater than 32.5 µM; with SR leukemia, 3.17 µM; in the test with SNB-19 CNS, 7.1 µM; with SK-MEL-5 melanoma it was 4.7 µM; with HCT-15 colon, 4.45 µM. For the same compound, the TGI stood at 2.07 µM in the test on UACC-62 melanoma, 6.88 µM in the test with K-562 leukemia, 4.05 µM with UO-31 renal and 7.54 µM with 786-0 renal.

These data come from PubChem BioAssay (NCI).
